Data set [1] relates to anesthetized thoracotomized dog. Nature of the data set: Heart rate lowering and coronary bloodflow increasing effects upon anesthetized thoracotomized dog. Format: in vivo. Particulars: compounds of group (I), 0.3 mg/kg intravenous, anesthetized mongrel; for Coronary bloodflow (CBF): rate of increase in coronary bloodflow: left circumflex branch. How it is done:
Heart Rate Lowering and Coronary Bloodflow Increasing Effects Upon Anesthetized Thoracotomized Dog
The chest of a grown-up mongrel was opened under enflurane inhalation anesthesia. The blood flow of the coronary artery was determined by setting a probe of an electromagnetic bloodflowmeter at its left circumflexbranch, while the heart rate was determined by triggering the wave form of the pressure in its left ventricle and counting it with a tachometer.
The intravenous administration of a test compound (in a dose of 0.3 mg per kg of the weight of the anesthetized mongrel) was carried out by using a catheter inserted into its femoral […].
The effect of increasing the bloodflow of the circumflex branch of the left coronary artery or the heart rate lowering effect was evaluated based on the difference between the bloodflow or the heart rate after the administration and that before the administration according to the following criteria.

The nature of data set [2]: Acute toxicity test (intravenous injection) using a mouse. Particulars: in vivo. From the text: The representative compounds of the present invention were examined by an ordinary acute toxicity test (intravenous injection) using a mouse to obtain the results shown in Table 4.

For the molecule `CN(CCCNC(=O)C/C=C/c1ccc(-n2ccnc2)cc1)CCc1ccc2c(c1)OCO2` [Compound K, (E)-N-[3-((N'-(2-(3,4-Methylenedioxyphenyl)-ethyl)-N'-methyl)amino)propyl]-4-(4-(1H-imidazol-1-yl)phenyl)-3-butenamide], in data set [1], the “Heart rate (HR): rate of reduction in heart rate” value is on record as “++ (11-20%)” and the “Coronary bloodflow (CBF): rate of increase in coronary bloodflow” value is “+ (1-100%)”.

As a reminder, the LD50 is the dose at which mortality reaches 50%. Lower therefore signals a more toxic substance. For the molecule `COc1ccc(CCN(C)CCCNC(=O)C/C=C/c2ccc(-n3cnc(C)c3)cc2)cc1OC` [Compound L, (E)-N-[3-((N'-(2-(3,4-Dimethoxyphenyl)ethyl)-N'-methyl)amino)propyl]-4-(4-(4-methyl-1H-imidazol-1-yl)phenyl)-3-butenamide], the LD50 in data set [2] was 92 mg/kg. Further, in data set [1], the “Heart rate (HR): rate of reduction in heart rate” value is reported as “+ (1-10%)” and the “Coronary bloodflow (CBF): rate of increase in coronary bloodflow” value was “+ (1-100%)”.

As to `COc1ccc(CCN(C)CCCNC(=O)C/C=C/c2ccc(-n3cncn3)cc2)cc1OC` [Compound M, (E)-N-[3-((N'-(2-(3,4-Dimethoxyphenyl)ethyl)-N'-methyl)amino)propyl]-4-(4-(1H-1,2,4-triazol-1-yl)phenyl)-3-butenamide], the LD50 in data set [2] came out at 120 mg/kg. In data set [1], the “Heart rate (HR): rate of reduction in heart rate” value is listed as “+ (1-10%)” and the “Coronary bloodflow (CBF): rate of increase in coronary bloodflow” value was “+ (1-100%)”.

For the origin of these results see US5607953A, “Butenoic or propenoic acid derivative” (Eisai Co., Ltd., priority 1988, dated 1997).
